From US8586505B2 (SDS Biotech K. K., priority 2009, dated 2013)

How the values were obtained:
Type in all cases: in vivo
[1] = system: Phytophthora infestans; experiment: whole plant or invertebrate; details: in Solanum lycopersicum, 96 h, read-out: Determination of control effect (preventive value)
[2] = system: Sphaerotheca fuliginea; experiment: Test of examining control effect on Sphaerotheca fuliginea (potted cucumber plants); details: Podosphaera fuliginea, 336 h; 10% wettable powder adjusted to 125 ppm, 15 ml/pot sprayed on potted cucumber plants one day before spray inoculation; assessed after 14 days in greenhouse; read-out: Determination of control effect (preventive value) on Sphaerotheca fuliginea
Outline: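 Control effect rated high at preventive value 60–100% and low below 60%, from lesion area relative to untreated plants 14 days after spray inoculation with S. fuliginea (1.0×10^5 cells/ml). Compound applied at 125 ppm as wettable-powder spray one day before inoculation, on 2nd-leaf-stage Sagamihanjiro cucumber.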

[3] = system: Pseudoperonospora cubensis; experiment: Test of examining control effect on Pseudoperonospora cubensis (potted cucumber plants); details: 96 h, 10% wettable powder adjusted to 125 ppm, 15 ml/pot sprayed on potted cucumber plants one day before spray inoculation, assessed after 1 day wet chamber and 3 days greenhouse, read-out: Determination of control effect (preventive value) on Pseudoperonospora cubensis
Outline: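 Preventive treatment: 125 ppm sample agent solution (from 10% wettable powder) sprayed at 15 ml/pot on 2.5-leaf Sagamihanjiro cucumbers, then P. cubensis inoculated next day at 1.0×10^4 cells/ml. Incubation was 1 day wet at 21° C plus 3 days greenhouse. Lesion area rate compared with untreated gives preventive value (≥60% high).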

| Structure (SMILES) | pest or weed control at 125 ppm [1] [%] | pest or weed control at 125 µg/mL [2] [%] | pest or weed control at 125 µg/mL [3] [%] |
| --- | --- | --- | --- |
| C#CCCNc1ncnc2sccc12 [compound 1, 4-(3-butynylamino)thieno[2,3-d]pyrimidine] | 0 to 60 | 0 to 60 | 0 to 60 |
| COCc1ccccc1C#CCCNc1ncnc2c(OC)cccc12 [compound 328] | 0 to 60 | 60 to 100 | 60 to 100 |
| CSc1ccc(C#CCCNc2ncnc3ccccc23)cc1 [compound 117] | 60 to 100 | 60 to 100 | 60 to 100 |
| CC(CC#Cc1ccccc1)Nc1ncnc2ccccc12 (stereo not drawn) [compound 270] | 0 to 60 | 60 to 100 | 60 to 100 |
| CC(CC#Cc1c(Cl)cccc1C(F)(F)F)Nc1ncnc2sccc12 (stereo not drawn) [compound 252] | 0 to 60 | 60 to 100 | 60 to 100 |
| N#Cc1cc(C(F)(F)F)ccc1C#CCCNc1ncnc2ccccc12 [compound 187] | 0 to 60 | 0 to 60 | 60 to 100 |
| COC(C)c1ccccc1C#CCCNc1ncnc2ccccc12 (stereo not drawn) [compound 137] | 0 to 60 | 60 to 100 | 60 to 100 |
| COc1ccccc1C#CCCNc1ncnc2ccccc12 [compound 115] | 60 to 100 | 60 to 100 | 60 to 100 |
| COCc1ccccc1C#CCCNc1ncnc2cc(C(F)(F)F)ccc12 [compound 324] | 0 to 60 | 0 to 60 | 60 to 100 |
| COCc1ccccc1C#CCCNc1ncnc(Cl)c1C [compound 363] | 60 to 100 | 60 to 100 | 60 to 100 |
| CCC(CC#Cc1ccc(F)cc1)Nc1ncnc2ccccc12 (stereo not drawn) [compound 294] | 0 to 60 | 60 to 100 | 60 to 100 |
| COCc1ccccc1C#CCCNc1ncnc2ccc(F)cc12 [compound 317] | 60 to 100 | 60 to 100 | 60 to 100 |
| CC(CC#Cc1ccc(Cl)cc1C(F)(F)F)Nc1ncnc2cccc(F)c12 (stereo not drawn) [compound 346] | 0 to 60 | 60 to 100 | 60 to 100 |
| CSCc1ccccc1C#CCCNc1ncnc2ccccc12 [compound 152] | 0 to 60 | 0 to 60 | 60 to 100 |
| Cc1cccc2c(NC(C)CC#Cc3ccc(Cl)cc3C(F)(F)F)ncnc12 (stereo not drawn) [compound 354] | 0 to 60 | 60 to 100 | 60 to 100 |
| C(#Cc1ccccc1)CCNc1ncnc2[nH]ccc12 [compound 379] | 0 to 60 | 60 to 100 | 0 to 60 |
| COCOc1ccc(C#CCCNc2ncnc3ccccc23)cc1 [compound 121] | 60 to 100 | 60 to 100 | 60 to 100 |
| COC(OC)c1ccccc1C#CCCNc1ncnc2ccccc12 [compound 149] | 0 to 60 | 0 to 60 | 0 to 60 |
| COCc1ccccc1C#CCCNc1ncnc2ccccc12 [compound 133] | 60 to 100 | 60 to 100 | 60 to 100 |
| Fc1ccc(C#CCCNc2ncnc3ccccc23)cn1 [compound 194] | 0 to 60 | 60 to 100 | 60 to 100 |
| C(#Cc1ccsc1)CCNc1ncnc2ccccc12 [compound 205] | 60 to 100 | 60 to 100 | 60 to 100 |
| Clc1ccccc1C#CCCNc1ncnc2ccccc12 [compound 97] | 60 to 100 | 60 to 100 | 60 to 100 |
